Results from paper PMC3465505 (Antiviral research, 2012).
Where two headings read alike, the source gives them in different places. Marks after values point to notes of the source that are not given here.

Experiments:
[1] = target: SV40 TAg ATPase activity (Simian virus 40, UniProt P03070); test: biochemical; assay type: biochemical; details: for inhibition of TAg ATPase activity (SAR screen): 30 μM compound; for potency of TAg ATPase inhibition compared with MAL2-11B: 100 μM compound; for inhibition at 3 µM: read-out: inhibition of TAg ATPase activity; for inhibition at 30 µM: read-out: inhibition of the ATPase activity of TAg
Sequence of SV40 TAg ATPase activity (P03070 whole entry): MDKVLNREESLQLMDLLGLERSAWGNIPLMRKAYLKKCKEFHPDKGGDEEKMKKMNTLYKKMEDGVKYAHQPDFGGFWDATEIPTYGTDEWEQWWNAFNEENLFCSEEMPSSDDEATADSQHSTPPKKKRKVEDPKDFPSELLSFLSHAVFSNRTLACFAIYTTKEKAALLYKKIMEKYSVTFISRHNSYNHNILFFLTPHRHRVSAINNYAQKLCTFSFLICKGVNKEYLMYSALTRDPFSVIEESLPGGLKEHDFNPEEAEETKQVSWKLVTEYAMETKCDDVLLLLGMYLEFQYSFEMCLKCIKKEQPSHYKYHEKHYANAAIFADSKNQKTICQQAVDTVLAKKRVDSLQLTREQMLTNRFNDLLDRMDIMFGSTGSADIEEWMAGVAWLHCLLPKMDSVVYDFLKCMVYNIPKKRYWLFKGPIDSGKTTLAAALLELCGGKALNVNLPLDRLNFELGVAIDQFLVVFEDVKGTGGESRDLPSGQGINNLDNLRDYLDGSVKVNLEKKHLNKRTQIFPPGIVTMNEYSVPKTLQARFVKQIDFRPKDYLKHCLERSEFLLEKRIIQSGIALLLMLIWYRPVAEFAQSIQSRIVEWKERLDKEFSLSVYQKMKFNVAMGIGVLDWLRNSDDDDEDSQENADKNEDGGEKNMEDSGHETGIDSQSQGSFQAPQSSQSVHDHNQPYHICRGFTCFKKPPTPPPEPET

[2] = target: T1, SV40 TAg (Simian virus 40, UniProt P03070); assay type: biochemical
T1 sequence (P03070 whole entry): as above

[3] = test system: SV40; test: SV40 DNA replication by qPCR in CV1 cells; assay type: cell-based, Simian Virus 40; details: 48 hpi; for inhibition of DNA replication: 30 μM
[4] = test system: SV40; test: SV40 plaque assay in CV1 cells; assay type: cell-based, Simian Virus 40; details: 2 days; for inhibition of viral replication relative to the DMSO control (plaque assay): 30 μM
[5] = test system: CV1 cells; test: MTS viability assay; assay type: cell-based, monkey; details: CV1 cells ~90% confluency, 48 h
[6] = test system: BKV; test: BKV DNA replication by qPCR in Vero cells; assay type: cell-based, BK virus; details: 10 μM, 5 d
[7] = target: T1, SV40 TAg; test: TAg aggregation under ATPase assay conditions; details: utilized ATPase assay conditions
[8] = TAg in the presence of 3 μM compound

Oc1c(Br)cc(Cl)cc1Cc1cc(Cl)cc(Br)c1O [6,6'-methylenebis(2-bromo-4-chlorophenol)]
inhibition of TAg ATPase activity (SAR screen) [1]: inhibited TAg ATPase activity

Oc1c(Br)cc(Cl)cc1Sc1cc(Cl)cc(Br)c1O [6,6'-thiobis(2-bromo-4-chlorophenol)]
inhibition of TAg ATPase activity (SAR screen) [1]: inhibited TAg ATPase activity

Nc1ncnc2c1ncn2[C@@H]1O[C@H](COP(=O)(O)OP(=O)(O)O)[C@@H](O)[C@H]1O [ADP]
Vmax ([2]; TAg in the presence of 150 μM ADP): 2.9 ^‡ pmol/min

CC1=C(C(=O)OCc2ccccc2)C(c2ccc(-c3ccccc3)cc2)NC(=O)N1CCCCCC(=O)O (stereo not drawn) [MAL2-11B]
inhibition of DNA replication in culture ([3]; 100 μM): ~ 60%
reduction of the number of plaques ([4]; 100 μM): ~60%

Oc1c(Cl)cc(Cl)cc1Sc1cc(Cl)cc(Cl)c1O [bithionol, Bithionol]
potency of TAg ATPase inhibition compared with MAL2-11B [1]: significantly more potent inhibitors than MAL2-11B
inhibition at 3 µM [1]: ~50%
inhibition at 30 µM [1]: ~80%
inhibition of DNA replication [3]: ~ 100 fold
MI50 (metabolic index-50) [5]: 68 µM
inhibition of viral replication relative to the DMSO control (plaque assay) [4]: ~100 fold
Vmax [2, 8]: 10 ^‡ pmol/min
inhibition of BKV replication [6]: somewhat less effective

O=C1C(Cl)=C(Cl)C(=O)C(Cl)=C1Cl [chloranil]
potency of TAg ATPase inhibition compared with MAL2-11B [1]: significantly more potent inhibitors than MAL2-11B
TAg aggregation [7]: caused TAg to aggregate

Oc1c(Cl)cc(Cl)c(Cl)c1Cc1c(O)c(Cl)cc(Cl)c1Cl [hexachlorophene]
potency of TAg ATPase inhibition compared with MAL2-11B [1]: significantly more potent inhibitors than MAL2-11B
inhibition at 3 µM [1]: ~50%
inhibition at 30 µM [1]: ~80%
inhibition of DNA replication [3]: ~ 100 fold
MI50 95% confidence range based on the sigmoidal fit [5]: 29 to 71 µM
MI50 (metabolic index-50) [5]: 55 µM
inhibition of viral replication relative to the DMSO control (plaque assay) [4]: ~100 fold
Vmax [2, 8]: 6.6 ^‡ pmol/min
inhibition of BKV replication [6]: maintained its potent inhibition
